Results from US20230017539A1, “TRI-HETEROCYCLIC COMPOUND AS JAK INHIBITOR, AND USE THEREOF” (CHIA TAI TIANQING PHARMACEUTICAL GROUP CO., LTD., priority 2019, published 2023).

What was measured:
[1] = test system: adjuvant-induced arthritis (AIA); assay: In vivo efficacy study of adjuvant-induced arthritis (AIA) in rats; design: species or system female Lewis rats; settings: for Inhibition rate of area under clinical score curve, AUC (%): two weeks, rat AIA
Procedure: Experimental procedures: the compounds of the present application were tested for their therapeutic effect on arthritis using a rat adjuvant arthritis model. Female Lewis rats weighing 160-180 g were anesthetized with isoflurane and injected with 0.1 mL of Mycobacterium tuberculosis suspension subcutaneously in the left hind paw. 13 days after the modeling, the rats were divided into groups and given corresponding test compounds. For example, the female Lewis rats were orally administered different doses (see Table 3-2 for specific doses) of a solution of test compound 1A in a mixed solvent [5% DMSO, 95% (12% SBE-β-CD)] twice a day (10 test animals in each dose group). During two consecutive weeks of administration, the states of the rats were observed, and the foot volume swellings were recorded and scored.

TYK2(h) = target: T1, TYK2(h) (Homo sapiens, UniProt P29597); assay: In vitro activity assay of TYK2 kinase (radiometric, [γ-33P]-ATP); type: biochemical; settings: recombinant human Tyk2, 40 min at room temperature
T1 construct: purchased Eurofins, UK
Procedure: Recombinant human JAK1, JAK2, JAK3 and Tyk2 […], and main instruments and reagents were all provided by Eurofins, UK.
Dilution of JAK2, JAK3 and TYK2: 20 mM 3-(N-morpholino)propanesulfonic acid (MOPS), 1 mM EDTA, 0.01% Brij-35.5% glycerol, 0.1% β-mercaptoethanol, and 1 mg/mL BSA; dilution of JAK1: 20 mM TRIS, 0.2 mM EDTA, 0.1% β-mercaptoethanol, and 0.01% Brij-35.5% glycerol. All compounds were prepared as 100% DMSO solutions, and the concentration was brought to 50 times the final assay concentration. A test compound was diluted with a 3-fold gradient, with a total of 9 final concentrations ranging from 10 μM to […]. The DMSO content in the assay reaction was 2%. The working stock solution of the compound was added into the assay wells as a first component of the reaction, and the remaining components were then added according to the protocol detailed for the assay below.
TYK2(h) was incubated with 8 mM MOPS pH 7.0, 0.2 mM EDTA, 250 μM GGMEDIYFEFMGGKKK (SEQ ID NO:4), 10 mM magnesium acetate and [γ-^33P]-ATP (the activity and concentration were tailored as required). The reaction was started by adding a Mg/ATP mixture, and terminated by adding 0.5% phosphoric acid after 40 min of incubation at room temperature. 10 μL of the reactant was then dotted on a P30 filter pad, washed three times with 0.425% phosphoric acid and once with methanol within 4 minutes, and dried, and scintillation counting was performed.
The IC50 results were obtained by analysis using XLFITS (formula 205) of IDBS company and detailed in Table 1.

[2] = test system: collagen-induced arthritis (CIA); assay: In vivo efficacy study of collagen-induced arthritis (CIA) in rats; design: species or system Lewis rats
Procedure: [table] The compounds of the present application were tested for their therapeutic effect on arthritis using a rat collagen-induced arthritis model. Lewis rats were immunized. The day of the first immunization was recorded as day 0, and the subsequent days were recorded in order. The Lewis rats were anesthetized with isoflurane and injected with 50 μL of prepared collagen emulsion (containing 200 μg of CII) subcutaneously in the tail (2-3 cm away from the base of the tail). On day 21, the same volume of the collagen emulsion was injected in the tail in the same manner. Rats in the normal group were not immunized. On day 27 of the modeling, the rats were divided into groups and administered corresponding test compounds. For example, the female Lewis rats were orally administered different doses (see Table 4-1 for specific doses) of a solution of test compound 4 in a mixed solvent [0.5% HPMC E5/0.5% PVP K30/0.2% SLS in water] twice a day (8 test animals in each dose group). During 14 consecutive days of administration, the states of the rats were observed, and the foot volume swellings were recorded and scored.

T1 sequence (P29597 whole entry): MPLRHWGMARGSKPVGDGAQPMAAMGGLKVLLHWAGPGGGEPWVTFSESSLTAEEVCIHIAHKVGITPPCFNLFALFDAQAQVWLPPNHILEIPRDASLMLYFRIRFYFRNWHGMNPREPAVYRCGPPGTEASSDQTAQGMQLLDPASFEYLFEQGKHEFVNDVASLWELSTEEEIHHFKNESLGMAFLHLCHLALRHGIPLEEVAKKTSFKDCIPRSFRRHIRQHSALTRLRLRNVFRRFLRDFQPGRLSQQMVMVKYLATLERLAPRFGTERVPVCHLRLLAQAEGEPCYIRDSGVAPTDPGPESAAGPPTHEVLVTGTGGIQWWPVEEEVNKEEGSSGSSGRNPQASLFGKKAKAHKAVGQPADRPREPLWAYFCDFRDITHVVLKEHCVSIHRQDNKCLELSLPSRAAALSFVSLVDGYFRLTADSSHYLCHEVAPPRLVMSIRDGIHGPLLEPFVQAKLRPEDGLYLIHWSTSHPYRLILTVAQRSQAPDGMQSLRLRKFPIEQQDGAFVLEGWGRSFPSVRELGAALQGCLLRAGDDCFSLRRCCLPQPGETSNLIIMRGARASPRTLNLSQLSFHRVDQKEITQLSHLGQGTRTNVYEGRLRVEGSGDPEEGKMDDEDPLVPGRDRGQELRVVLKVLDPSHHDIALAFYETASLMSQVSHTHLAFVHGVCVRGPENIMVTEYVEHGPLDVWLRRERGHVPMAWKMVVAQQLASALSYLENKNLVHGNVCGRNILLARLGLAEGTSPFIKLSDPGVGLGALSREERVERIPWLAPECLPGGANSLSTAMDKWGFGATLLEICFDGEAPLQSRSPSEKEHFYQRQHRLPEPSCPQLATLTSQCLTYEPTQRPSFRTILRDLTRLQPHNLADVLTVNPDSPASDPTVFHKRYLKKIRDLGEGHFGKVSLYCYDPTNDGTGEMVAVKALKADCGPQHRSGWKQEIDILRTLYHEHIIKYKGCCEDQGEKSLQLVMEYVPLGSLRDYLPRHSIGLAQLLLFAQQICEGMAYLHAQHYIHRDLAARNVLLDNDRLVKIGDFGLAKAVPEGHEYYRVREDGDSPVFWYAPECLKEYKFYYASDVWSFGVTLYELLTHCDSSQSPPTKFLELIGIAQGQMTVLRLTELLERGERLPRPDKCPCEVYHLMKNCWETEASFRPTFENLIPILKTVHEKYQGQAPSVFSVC

## N#Cc1cc2n(n1)CC(n1cnc3cnc4[nH]ccc4c31)CC2 (single isomer, unassigned) [Compound 1A]
[1]; 3 mg/kg oral twice a day
  Inhibition rate of area under clinical score curve, AUC (%): 49.8%
[1]; 10 mg/kg group, day 13 (day of grouping, start of dosing)
  Mean arthritis clinical score, peak: 5.8
[1]; 10 mg/kg group, day 27
  Mean arthritis clinical score at the experimental endpoint: 1.3
[1]; 10 mg/kg oral twice a day
  Inhibition rate of area under clinical score curve, AUC (%): 60.3%
[1]; 3 and 10 mg/kg groups, significant difference from solvent control from day 20
  Effect on the downward trend of the weight in animals caused by the disease attack: significant relieving effect on the downward trend of the weight
[1]; 3 and 10 mg/kg oral twice a day, dose-dependent
  Effect on increase in arthritis clinical score and foot volume: inhibited the increase in arthritis clinical score and foot volume
TYK2(h)
  IC50: 35.8 nM

## COc1nc2cnc3[nH]ccc3c2n1[C@@H]1CCc2cc(C#N)nn2C1 [Compound 4]
[2]; 1 mg/kg oral BID, rat CIA
  Clinical score (on day 14 of administration) Mean ± SEM: 0.38 ± 0.16
  Foot volume (mL, on day 14 of administration) Mean ± SEM: 1.32 ± 0.04 mL
[2]; 3 mg/kg BID, end of administration at day 14
  Body weight recovery: recovers to the level in the normal group
[2]; 3 mg/kg oral BID, rat CIA
  Foot volume (mL, on day 14 of administration) Mean ± SEM: 1.28 mL
[2]; BID at 1 and 3 mg/kg
  Degree of the foot volume swelling: reduced in a dose-dependent manner
[2]; BID at 1 and 3 mg/kg, significant difference from solvent control
  Effect on clinical scores of the arthritic rats: reduces the clinical scores of the arthritic rats in a dose-dependent manner
TYK2(h)
  IC50: 50.3 nM
